In US4740233A, “Substituted 1,2,4-triazolo[1,5-a]-pyrimidine-2-sulfonamides and compositions and methods of controlling undesired vegetation and suppressing the nitrification of ammonium nitrogen in soil” (The Dow Chemical Company, priority 1986, dated 1988):

How the values were obtained:
[1] = tested on: nitrification of ammonium nitrogen; test: Suppression of nitrification of ammonium nitrogen in soil; conditions: 27° C.
Experimental: A sufficient volume of water was added to 20 g of the soil in a wide-mouth, screw-cap, 4-ounce, glass bottle, such that the moisture content of the mixture was made equal to the 1/3 bar tension value for that soil. The mixture was thoroughly mixed before sealing. […] Acetone slows the rate of soil nitrification and its concentration must be carefully controlled. Single samples of each test chemical were incubated for two weeks at 27° C.
The experiment comprised the following types of samples:
The soil samples were analyzed as follows: Sufficient ammonium sulfate extracting solution was added to the sample, such that the total volume of added water was 50 ml (included water added during sample preparation). The capped mixture was shaken 10 minutes to solubilize nitrate and the soil particulates were allowed to settle. The nitrate concentration in the water phase was determined with a nitrate-specific ion electrode such as Orion Model 93-07.
The non-nitrate nitrogen remaining (% NH4 -N remaining) in the soil after two weeks (performance value) was calculated as follows: [formula]

wild oats = test: Preemergent control of plant species; format: in vivo; conditions: Avena fatua, pre-emergence, 336 h; 0.25 lb/acre; read-out: percent preemergent control
Experimental: (§1) The seeds of various species of plants were planted in beds of good agricultural soil in a greenhouse. A number of compositions of the present invention, generally in the nature of an aqueous emulsion, were applied at rates listed in the table so as to deposit a predetermined amount of active ingredients uniformly throughout the surface of the bed. Another seed bed was treated only with water to serve as a control. After treatment the seed beds were maintained for two weeks under greenhouse conditions conducive for good plant growth and watered as necessary. Control refers to the reduction in growth compared to the observed results of the same untreated species.

soybean = test: Preemergent control of plant species; format: in vivo, Glycine max.; conditions: Glycine max, pre-emergence, 336 h; 0.25 lb/acre; read-out: percent preemergent control
Experimental: as §1

annual morning glory = test: Preemergent control of plant species; format: in vivo, Ipomoea spp.; conditions: Ipomoea, pre-emergence, 336 h; 0.25 lb/acre; read-out: percent preemergent control
Experimental: as §1

yellow foxtail = test: Preemergent control of plant species; format: in vivo, Setaria lutescens; conditions: Setaria, pre-emergence, 336 h; 0.25 lb/acre; read-out: percent preemergent control
Experimental: as §1

wheat = test: Preemergent control of plant species; format: in vivo, Triticum aestivum; conditions: Triticum aestivum, pre-emergence, 336 h; 0.25 lb/acre; read-out: percent preemergent control
Experimental: as §1

corn = test: Preemergent control of plant species; format: in vivo, Zea mays; conditions: Zea mays, pre-emergence, 336 h; 0.25 lb/acre; read-out: percent preemergent control
Experimental: as §1

barnyardgrass = test: Preemergent control of plant species; format: in vivo, Echinochloa crusgalli; conditions: Echinochloa crus-galli, pre-emergence, 336 h; 0.25 lb/acre; read-out: percent preemergent control
Experimental: as §1

johnson grass = test: Preemergent control of plant species; format: in vivo, Sorghum halepense; conditions: Sorghum halepense, pre-emergence, 336 h; 0.25 lb/acre; read-out: percent preemergent control
Experimental: as §1

jimsonweed = test: Preemergent control of plant species; format: in vivo, Datura stramonium; conditions: Datura stramonium, pre-emergence, 336 h; 0.25 lb/acre; read-out: percent preemergent control
Experimental: as §1

rice = test: Preemergent control of plant species; format: in vivo, Oryza sativa; conditions: Oryza sativa, pre-emergence, 336 h; 0.25 lb/acre; read-out: percent preemergent control
Experimental: as §1

yellow nutsedge = test: Preemergent control of plant species; format: in vivo, Cyperus esculentus; conditions: Cyperus, pre-emergence, 336 h; 0.25 lb/acre; read-out: percent preemergent control
Experimental: as §1

sugar beet = test: Preemergent control of plant species; format: in vivo, Beta saccharifera; conditions: Beta vulgaris, pre-emergence, 336 h; 0.25 lb/acre; read-out: percent preemergent control
Experimental: as §1

cotton = test: Preemergent control of plant species; format: in vivo, Gossypium spp.; conditions: Gossypium hirsutum, pre-emergence, 336 h; 0.25 lb/acre; read-out: percent preemergent control
Experimental: as §1

velvetleaf = test: Preemergent control of plant species; format: in vivo, Abutilon theophrasti; conditions: Abutilon theophrasti, pre-emergence, 336 h; 0.25 lb/acre; read-out: percent preemergent control
Experimental: as §1

rape = test: Preemergent control of plant species; format: in vivo, Brassica napus; conditions: Brassica napus, pre-emergence, 336 h; 0.25 lb/acre; read-out: percent preemergent control
Experimental: as §1

sorghum = test: Preemergent control of plant species; format: in vivo, Sorghum vulgare; conditions: Sorghum, pre-emergence, 336 h; 0.25 lb/acre; read-out: percent preemergent control
Experimental: as §1

| SMILES | % NH4-N Remaining After 2 Weeks Incubation ([1]; 0.06 ppm) [%] | % NH4-N Remaining After 2 Weeks Incubation ([1]; 0.25 ppm) [%] | % NH4-N Remaining After 2 Weeks Incubation ([1]; 1 ppm) [%] | % NH4-N Remaining After 2 Weeks Incubation ([1]; 4 ppm) [%] | pest or weed control at 280.212 g/ha (wild oats) [%] | plant injury at 280.212 g/ha (soybean) [%] | pest or weed control at 280.212 g/ha (annual morning glory) [%] | pest or weed control at 280.212 g/ha (yellow foxtail) [%] | plant injury at 280.212 g/ha (wheat) [%] | plant injury at 280.212 g/ha (corn) [%] | pest or weed control at 280.212 g/ha (barnyardgrass) [%] | pest or weed control at 280.212 g/ha (johnson grass) [%] | pest or weed control at 280.212 g/ha (jimsonweed) [%] | plant injury at 280.212 g/ha (rice) [%] | pest or weed control at 280.212 g/ha (yellow nutsedge) [%] | plant injury at 280.212 g/ha (sugar beet) [%] | plant injury at 280.212 g/ha (cotton) [%] | pest or weed control at 280.212 g/ha (velvetleaf) [%] | plant injury at 280.212 g/ha (rape) [%] | plant injury at 280.212 g/ha (sorghum) [%] |
| --- | --- | --- | --- | --- | --- | --- | --- | --- | --- | --- | --- | --- | --- | --- | --- | --- | --- | --- | --- | --- |
| Cc1cc(C)n2nc(S(=O)(=O)Nc3c(F)cccc3C(=O)OC(C)(C)C)nc2n1 [Compound 56] | 0 | 37 | 59 | 78 | 0 | 0 | 90 | 20 | 0 | 30 | 0 | 0 | 0 | 0 | 70 | 100 | 0 | 50 | 100 |  |
| Cc1ccn2nc(S(=O)(=O)Nc3c(C)cccc3Cl)nc2n1 [Compound 144] | 16 | 43 | 63 | 92 | 70 | 60 | 95 | 100 | 0 | 70 | 80 | 100 | 100 | 40 | 100 | 100 | 100 | 100 | 100 |  |
| Cc1cnc2nc(S(=O)(=O)Nc3c(Cl)cccc3Cl)nn2c1 [Compound 192] | 21 | 48 | 74 | 86 | 0 | 90 | 97 | 70 | 0 | 10 | 0 | 0 | 100 | 0 | 90 | 100 | 95 | 100 | 100 |  |
| Cc1ccc(Cl)c(NS(=O)(=O)c2nc3nc(C)c(Cl)c(C)n3n2)c1Cl [Compound 199] | 40 | 63 | 78 | 88 | 0 | 70 | 20 | 0 |  | 0 |  | 0 | 0 | 0 | 0 | 90 | 20 | 70 | 100 |  |
| Cc1cn2nc(S(=O)(=O)Nc3c(Cl)cccc3Cl)nc2nc1C [Compound 205] | 32 | 38 | 76 | 81 | 50 | 90 | 75 | 0 | 0 | 95 | 50 | 0 | 100 | 50 | 70 | 100 | 100 | 100 | 100 |  |
| Cc1ccn2nc(S(=O)(=O)N(C(=O)C(C)(C)C)c3c(F)cccc3F)nc2n1 [Compound 280] |  |  |  |  |  | 10 | 90 | 100 | 60 | 50 | 100 | 90 | 100 | 50 | 100 | 100 | 80 | 100 | 100 | 100 |
| CCCC(=O)N(c1c(F)cccc1F)S(=O)(=O)c1nc2nc(C)ccn2n1 [Compound 283] |  |  |  |  |  | 20 | 80 | 100 | 100 | 40 | 100 | 100 | 95 | 100 | 100 | 100 | 100 | 100 | 100 | 100 |
| C=C(C)C(=O)N(c1c(F)cccc1F)S(=O)(=O)c1nc2nc(C)ccn2n1 [Compound 286] |  |  |  |  |  | 30 | 100 | 100 | 70 | 50 | 100 | 100 | 100 | 100 | 100 | 100 | 100 | 100 | 100 | 100 |
| CCCCCCCCCC(=O)N(c1c(F)cccc1F)S(=O)(=O)c1nc2nc(C)ccn2n1 [Compound 287] |  |  |  |  |  | 30 | 100 | 100 | 70 | 60 | 100 | 100 | 100 | 100 | 100 | 100 | 100 | 100 | 100 | 100 |
